According to patent US7632845B2, “Phenyl quinolines and their use as estrogenic agents” (Wyeth, priority 2003, dated 2009):

Columns and labels:
ERβ = target: T1, ERβ (Homo sapiens, UniProt Q92731); test: Competition with [3H]-17β-estradiol for ERβ ligand binding domain; details: for IC50: crude E. coli lysate expressing human ERβ LBD (D, E, & F), 2 nM [3H]-17β-estradiol, 5-15 hours at room temperature; for α/β: receptor selectivity, ratio ERα IC50 / ERβ IC50
T1 construct: made in house; host or cells: E. coli
T1 sequence (Q92731 264-498 limits assumed): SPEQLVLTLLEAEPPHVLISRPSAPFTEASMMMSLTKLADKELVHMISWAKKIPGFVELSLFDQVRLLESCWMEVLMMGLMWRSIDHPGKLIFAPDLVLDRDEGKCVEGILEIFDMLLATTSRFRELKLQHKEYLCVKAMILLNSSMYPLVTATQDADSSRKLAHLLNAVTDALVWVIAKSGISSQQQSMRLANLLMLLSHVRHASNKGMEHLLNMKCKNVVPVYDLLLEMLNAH
Experimental: (§1) Representative examples of the invention were evaluated for their ability to compete with 17β-estradiol for both ERα and ERβ. This test procedure provides the methodology for one to determine whether a particular compound binds to the estrogen receptor (and is therefore “estrogenic”) and whether there is selectivity for ERα or ERβ. […] 17β-estradiol is included as a standard reference for compalison. The procedure used is briefly described below. A crude lysate of E. coli expressing the estrogen receptor ligand binding domains (D, E, & F) of human ERα or ERβ was prepared. Both receptors and compounds were diluted in 1× Dulbecco's PBS (DPBS) supplemented with 1 mM EDTA. Using a high binding masked microtiter plate, 100 uL of receptor (1 uG/well) was combined with 2 nM [^3H]-17β-estradiol and various concentrations of compound. After between 5 and 15 hours at room temperature, the plates were washed with DPBS/1 mM EDTA and bound radioactivity determined by liquid scintillation counting.

ERα = target: T2, ERα (Homo sapiens, UniProt P03372); test: Competition with [3H]-17β-estradiol for ERα ligand binding domain; details: crude E. coli lysate expressing human ERα LBD (D, E, & F); 2 nM [3H]-17β-estradiol; 5-15 hours at room temperature
T2 construct: made in house; host or cells: E. coli
T2 sequence (P03372 311-547 limits assumed): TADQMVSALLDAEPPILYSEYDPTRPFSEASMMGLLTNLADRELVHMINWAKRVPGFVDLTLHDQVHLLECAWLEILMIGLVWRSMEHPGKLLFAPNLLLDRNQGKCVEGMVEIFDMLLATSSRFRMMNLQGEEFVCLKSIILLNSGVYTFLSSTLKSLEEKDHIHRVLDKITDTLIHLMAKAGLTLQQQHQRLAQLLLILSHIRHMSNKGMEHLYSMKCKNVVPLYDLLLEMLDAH
Experimental: as §1

Compound | IC50 (ERβ) [nM] | α/β (ERβ) | IC50 (ERα) [nM]
Oc1ccc2nc(-c3ccc(O)c(F)c3)cc(-c3cncnc3)c2c1 [Cpd 28, 2-(3-Fluoro-4-hydroxyphenyl)-4-(5-pyrimidinyl)quinolin-6-ol] | 968 | 3 | 3310
CC(O)c1cc(-c2ccc(O)cc2)nc2ccc(O)cc12 (stereo not shown) [Cpd 17a, 4-(1-Hydroxyethyl)-2-(4-hydroxyphenyl)quinolin-6-ol] | > 5000 | – | > 5000
Oc1ccc2nc(-c3ccc(O)c(F)c3)cc(-c3ccsc3)c2c1 [Cpd 26, 2-(3-Fluoro-4-hydroxyphenyl)-4-thiophen-3-yl-quinolin-6-ol] | 75 | 12 | 868
Cc1ccc(-c2cc(-c3ccc(O)c(F)c3)nc3ccc(O)cc23)cc1 [Cpd 21, 2-(3-Fluoro-4-hydroxyphenyl)-4-(4-methylphenyl)quinolin-6-ol] | 112 | 26 | 2920

Now those with a lower IC50 (ERβ), led by results:

IC50 (ERβ) [nM] | α/β (ERβ) | IC50 (ERα) [nM] | Compound
3.4 | – | 283 | Oc1ccc2nc(-c3ccc(O)c(F)c3)cc(Br)c2c1 [Cpd 6b, 4-Bromo-2-(3-fluoro-4-hydroxyphenyl)quinolin-6-ol]
26 | 12 | 318 | N#Cc1c(Cl)c(-c2ccc(O)c(F)c2)nc2ccc(O)cc12 [Cpd 37, 3-Chloro-4-cyano-2-(3-fluoro-4-hydroxyphenyl)quinolin-6-ol]
1.1 | 105 | 116 | N#Cc1cc(O)cc2c(Cl)cc(-c3ccc(O)c(F)c3)nc12 [Cpd 56, 4-Chloro-8-cyano-2-(3-fluoro-4-hydroxyphenyl)quinolin-6-ol]
61 | 14 | 837 | CCc1cc(-c2ccc(O)cc2)nc2ccc(O)cc12 [Cpd 12a, 4-Ethyl-2-(4-hydroxyphenyl)quinolin-6-ol]
5 | 73 | 365 | Oc1ccc2nc(-c3ccc(O)c(F)c3)cc(I)c2c1 [Cpd 8b, 2-(3-Fluoro-4-hydroxyphenyl)-4-iodoquinolin-6-ol]
